Test results published in US20260027121A1, “LIGAND ACTING ON ADENOSINE RECEPTORS AND COMPOSITION COMPRISING SAME FOR PREVENTION, ALLEVIATION, OR TREATMENT OF OBESITYS” (FUTURE MEDICINE CO., LTD., priority 2022, published 2026).

What was measured:
[1] = tested on: brown adipocytes; test: Cytotoxicity / cell viability (EZ-CYTOX); assay type: cell-based, mouse; conditions: 24 hours
Method: (§1) Adipocyte precursor cells capable of differentiating into brown adipocytes were isolated from mouse brown adipose tissue. Cells were cultured in Dulbecco's modified Eagle's medium (Welgene, LM001-07) containing 10% fetal bovine serum (FBS, Gibco, 16000044) and 1% Penicillin Streptomycin (Welgene, LS202-02) at 37° C. in a humidified atmosphere with 5% CO2. When the cells reached about 100% confluency, the cells were exposed to a differentiation medium supplemented with 2.5 mM isobutyl methylxanthine (IBMX, Cayman, I5879), 0.125 mM indomethacin (Cayman, 70270), 1 μM dexamethasone (Cayman), 1 μg/mL insulin (Sigma, I9278), and 1 nM triiodothyronine (T3, Cayman, 6028) for 3 days for adipogenesis. Then, the cells were maintained in a growth medium containing 1 μg/mL insulin and 1 nM triiodothyronine (T3) for 3 days.
LJ-4378 is a dual-acting ligand with A2AAR agonist and A3AR antagonist activity. Cell viability was evaluated according to the manufacturer's instructions using EZ-CYTOX (DoGEN, EZ-3000). Absorbance was measured at 450 nm using a microplate reader (Thermo MULTISKAN GO, 8816-2015).

[2] = tested on: brown adipocytes; test: Lipolysis: glycerol and free fatty acid levels in conditioned medium; assay type: cell-based, mouse; conditions: 0.1 μM, 24 hours
Method: as §1
The free fatty acid (FFA) levels in the medium were measured using an NEFA reagent (WAKO, 436-91693) according to the manufacturer's product protocol.
Glycerol and free fatty acid (FFA) levels in a medium were measured using a glycerol reagent (Sigma Aldrich, F6428) and a NEFA reagent (WAKO, 436-91693) according to the manufacturer's product protocols.

[3] = tested on: brown adipocytes; test: Immunoblot of mitochondrial proteins and UCP1 in brown adipocytes; assay type: cell-based, mouse
Method: as §1
In the case of Western blots, the primary antibodies used for Western blots are summarized in [Table 2] above. An anti-rabbit horseradish peroxidase antibody (1:3000, Thermo Fisher, 31460) and an anti-mouse horseradish peroxidase antibody (1:3000, Jackson, 115-035-174) were used as secondary antibodies. All antibodies were diluted in a blocking buffer (5% skimmed milk or 5% bovine serum albumin in TBST). Western blot images were acquired using a Fusion Solo chemiluminescence imaging system (Vilber Lourmat) and analyzed with Evolution Capt software (version 17.03). NIH ImageJ software was used for quantification.

[4] = tested on: brown adipocytes; test: Oxygen consumption rate (XFp analyzer); assay type: cell-based, mouse; conditions: 0.1 μM, 24 hours
Method: Oxygen consumption rate (OCR) was measured using an XFp analyzer. Cells were cultured in XF DMEM basal medium (Agilent, 103575-100, pH 7.4) supplemented with 4 mM L-glutamine (Sigma, G8540) and 25 mM D-glucose (Sigma, G7021) at 37° C. The XFp Cell Mitochondrial Stress Test Kit (Agilent, 103010-100) was prepared and calculated sequentially with optimal final concentrations of 2.5 μM oligomycin, 0.5 μM FCCP and 0.5 μM rotenone/antimycin A and basal, maximal and proton leakage. Then, the OCR was normalized to protein concentration.

[5] = tested on: C57BL/6 male mice; test: Indirect calorimetry (PhenoMaster); assay type: in vivo, mouse; conditions: 1 mg·kg-1day-1 intraperitoneally, 10 days
Method: 6-week-old C57BL/6 male mice and CIDEA reporter mice were used according to the approved protocols by Institutional Animal Care and Use Committees of Seoul National University (SNU-201107-1, SNU-201221-3) for in vivo experiments. The mice were housed under a 12 h-light/12 h-dark cycle condition with free access to a normal chow diet (NCD, Purina Lab, 38057, protein: 24.52% calories, carbohydrate: 63.07% calories, and fat: 12.41% calories) and water at 22±1° C. The mice were treated intraperitoneally with LJ-4378 (1 mg·kg-1day-1) dissolved in 0.2% DMSO (diluted in PBS) for 10 days.
(§2) Indirect calorimetry was performed using a PhenoMaster (TSE Systems) to measure expenditure (EE), VO2, VCO2, activity, and food intake. Body components were measured by nuclear magnetic resonance scanning Echo MRI-700 (Echo Medical Systems).

[6] = tested on: CIDEA reporter mice; test: qPCR of brown adipocyte markers in brown adipose tissue; assay type: in vivo, mouse; conditions: BAT, 1 mg kg-1/day, 10 days
Method: Mice were treated with vehicle (CTL), LJ-4378 (LJ, 1 mg kg-1/day), […] (CGS21680, 1 mg kg-1/day), or A3 antagonist (LJ-4433, 1 mg kg-1/day) for 10 days. (A-B) Representative bioluminescence in dorsal and lateral positions (n=3, mean±SEM, ** p<0.01, **** p<0.0001). (C) Representative ex vivo fluorescence image and quantification of fluorescence intensity of BAT and iWAT (n=3, mean±SEM, ** p<0.01, **** p<0.0001). (D) qPCR analysis of UCP1 and CIDEAM RNA expression levels of brown adipose tissue (BAT) (n=3, mean±SEM, * p<0.05, ** p<0.01, *** p<0.001).
qPCR analysis was performed to investigate the adenosine receptor expression levels in brown adipocytes differentiated from immortalized brown adipocyte precursor cells. Primers used for the qPCR analysis are listed in the following [Table 3].

[7] = tested on: HFD-fed mice; test: Diet-induced obesity model (body weight, body composition, tissue weight, H&E); assay type: in vivo, mouse; conditions: 1 mg kg-1 once daily, 10 days
Method: For a diet-induced obesity model, mice were fed a high-fat diet (HFD)(Research Diets, D12492, protein: 20% kcal, carbohydrate: 20% kcal, and fat: 60% kcal) for 8 weeks. Then, LJ-4378 (1 mg kg-1) was injected into the mice once daily for 10 days.
as §2
Mice fed a HFD were used as a diet-induced obesity model. Body weight changes were monitored during treatment, and fat and body components of the mice were measured after treatment.
For histological analysis, adipose tissue was fixed in 10% formalin and then embedded in a paraffin block. Paraffin sections were stained with hematoxylin/eosin (H&E).

Question: Which results are given for `CCCCC#Cc1nc(N)c2ncn([C@@H]3SC[C@@H](O)[C@H]3O)c2n1` [LJ-4378, 2-(6-amino-2-(hex-1-yn-1-yl)-9H-purin-9-yl)tetrahydrothiophene-3,4-diol]?
Answer: concentrations with no effect on cell viability [1]: less than 100 μM; free fatty acid (FFA) level, fold increase ([2]; FIG. 2): 1.92±0.03 fold; glycerol level in conditioned medium, fold change ([2]; FIG. 3B): 1.61±0.07 fold; FFA level in conditioned medium, fold change ([2]; FIG. 3C): 1.59±0.1 fold; COXIV expression level, fold increase ([3]; 0.1 μM, 24 hours, FIG. 4A): 2.18±0.15 fold; UCP1 expression level, fold increase ([3]; 0.1 μM, 24 hours, FIG. 4A): 2.93±0.23 fold; COXIV, fold increase ([3]; 0.1 μM, 24 hours, FIG. 4D): 2.53±0.08 fold; MCAD, fold increase ([3]; 0.1 μM, 24 hours, FIG. 4D): 4.91±0.02 fold; UCP1, fold increase ([3]; 0.1 μM, 24 hours, FIG. 4D): 2.67±0.38 fold; ATP5A protein, fold increase ([3]; 10^−5, 48 hours): 3.72±0.04 fold; MCAD protein, fold increase ([3]; 10^−5, 48 hours): 2.13±0.03 fold; SDHB protein, fold increase ([3]; 10^−5, 48 hours): 3.71±0.25 fold; UQCRC2 protein, fold increase ([3]; 10^−5, 48 hours): 4.02±0.08 fold; ATP5A protein, fold increase ([3]; 10^−7, 48 hours): 3.94±0.06 fold; MCAD protein, fold increase ([3]; 10^−7, 48 hours): 1.79±0.09 fold; SDHB protein, fold increase ([3]; 10^−7, 48 hours): 3.41±0.47 fold; UQCRC2 protein, fold increase ([3]; 10^−7, 48 hours): 4.21±0.13 fold; ATP5A protein, fold increase ([3]; 10^−9 M, 48 hours): 3.51±0.05 fold; MCAD protein, fold increase ([3]; 10^−9 M, 48 hours): 1.79±0.03 fold; SDHB protein, fold increase ([3]; 10^−9 M, 48 hours): 3.47±0.18 fold; UQCRC2 protein, fold increase ([3]; 10^−9 M, 48 hours): 3.96 fold; ATP5A protein, fold increase ([3]; 10^−11 M, 48 hours): 2.20±0.08 fold; MCAD protein, fold increase ([3]; 10^−11 M, 48 hours): 1.53±0.03 fold; SDHB protein, fold increase ([3]; 10^−11 M, 48 hours): 1.87±0.28 fold; UQCRC2 protein, fold increase ([3]; 10^−11 M, 48 hours): 2.15±0.03 fold; increase of OCR related to ATP production [4]: 29.3%; increase of OCR related to basal [4]: 30.5%; increase of OCR related to maximal [4]: 49.1%; increase of energy expenditure [5]: 17.0%; increase of oxygen consumption [5]: 17.8%; Cidea mRNA level, fold increase [6]: 1.72±0.06 fold; Ucp1 mRNA level, fold increase [6]: 2.13±0.21 fold; reduction in body weight [7]: 8.24%; reduction in fat mass [7]: 24.18%; reduction in weight of gWAT [7]: 18.6%; reduction in weight of iWAT [7]: 30.1%
